Source: patent publication US11001564B2, “Substituted chromane-8-carboxamide compounds and analogues thereof, and methods using same” (priority 2016, dated 2021)
Where a name gives a salt, the structure may show the parent alone. Read-outs that look alike come from different tables or passages of the source.

Tested on: HBV rcDNA in HepDE19 cells
Assay: HepDE19 assay with bDNA quantitation of HBV rcDNA
Assay type: cell-based, hepatitis B virus (HBV)
Conditions: Hepatitis B virus, HepDE19, 168 h
Method in brief: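 HepG2-derived HepDE19 cells, switched to Tet-free medium, were exposed 7 days at 37 °C to compound (8-point ½-log series from 25 μM, 0.5% DMSO). HBV rcDNA measured by bDNA assay with HBV-specific probes; EC50/EC90 by 4-parameter fit. CC50 from CellTiter-Glo ATP on replicate plates after 4 days.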

[1] = read-out: DE-19 bDNA EC50, HepDE19 cells, 7 day incubation, rcDNA by Quantigene 2.0 bDNA assay
[2] = HepDE19 cells, 7 day incubation, rcDNA by Quantigene 2.0 bDNA assay, read-out: DE-19 bDNA EC50

Row | SMILES | EC50 [1] | EC50 [2]
1 | CNC(=O)N1CCC(COC(=O)N[C@H]2CCOc3c(C(=O)Nc4ccc(F)c(Cl)c4)ccc(F)c32)CC1 [Compound 165, (1-(Methylcarbamoyl)piperidin-4-yl)methyl (S)-(8-((3-chloro-4-fluorophenyl)carbamoyl)-5-fluorochroman-4-yl)carbamate] | 0.35 µM | 
2 | Cc1cc(NC(=O)c2ccc(F)c3c2OCC[C@@H]3NC(=O)OC[C@@H]2CCC(=O)N2C)ccc1F [Compound 166, ((S)-1-Methyl-5-oxopyrrolidin-2-yl)methyl ((S)-5-fluoro-8-((4-fluoro-3-methylphenyl)carbamoyl)chroman-4-yl)carbamate] |  | 1.3 µM
3 | Cc1cc(NC(=O)c2ccc(F)c3c2OCC[C@@H]3NC(=O)OCc2cccc(N3CCOCC3)n2)ccc1F [Compound 167, (6-Morpholinopyridin-2-yl)methyl (S)-(5-fluoro-8-((4-fluoro-3-methylphenyl)carbamoyl)chroman-4-yl)carbamate] |  | 1.8 µM
4 | Cc1cc(NC(=O)c2ccc(F)c3c2OCC[C@@H]3NC(=O)OC[C@H]2CCC(=O)N2C)ccc1F [Compound 168, ((R)-1-Methyl-5-oxopyrrolidin-2-yl)methyl ((S)-5-fluoro-8-((4-fluoro-3-methylphenyl)carbamoyl)chroman-4-yl)carbamate] |  | 1.6 µM
5 | O=C(N[C@H]1CCSc2c(C(=O)Nc3ccc(F)c(F)c3)ccc(F)c21)OCc1ccccn1 [Compound 169, Pyridin-2-ylmethyl (S)-(8-((3,4-difluorophenyl)carbamoyl)-5-fluorothiochroman-4-yl)carbamate hydrochloride] | 5.3 µM | 
6 | O=C(N[C@@H]1CCSc2c(C(=O)Nc3ccc(F)c(F)c3)ccc(F)c21)OCc1ccccn1 [Compound 170, Pyridin-2-ylmethyl (R)-(8-((3,4-difluorophenyl)carbamoyl)-5-fluorothiochroman-4-yl)carbamate hydrochloride] | 21 µM | 
7 | COC(=O)N[C@H]1CCSc2c(C(=O)Nc3ccc(F)c(F)c3)ccc(F)c21 [Compound 171, Methyl (S)-(8-((3,4-difluorophenyl)carbamoyl)-5-fluorothiochroman-4-yl)carbamate] |  | 4.1 µM
8 | O=C(N[C@H]1CCSc2c(C(=O)Nc3ccc(F)c(Cl)c3)ccc(F)c21)OCc1ccccn1 [Compound 172] |  | 2.9 µM
9 | O=C(N[C@@H]1CCSc2c(C(=O)Nc3ccc(F)c(Cl)c3)ccc(F)c21)OCc1ccccn1 [Compound 173] |  | 8.7 µM
10 | COC(=O)N[C@H]1CCSc2c(C(=O)Nc3ccc(F)c(Cl)c3)ccc(F)c21 [Compound 174, Methyl (S)-(8-((3-chloro-4-fluorophenyl)carbamoyl)-5-fluorothiochroman-4-yl)carbamate] |  | 1.6 µM
11 | O=C(NC1CCNc2c(C(=O)Nc3ccc(F)c(F)c3)cccc21)OCc1ccccn1 (stereo not drawn) [Compound 175, pyridin-2-ylmethyl (8-((3,4-difluorophenyl)carbamoyl)-1,2,3,4-tetrahydroquinolin-4-yl)carbamate] |  | 12 µM
12 | COC(=O)NC1CCNc2c(C(=O)Nc3ccc(F)c(Cl)c3)cccc21 (stereo not drawn) [Compound 176, methyl (8-((3-chloro-4-fluorophenyl)carbamoyl)-1,2,3,4-tetrahydroquinolin-4-yl)carbamate] |  | 23 µM
13 | COC(=O)N[C@H]1CCCc2c(C(=O)Nc3ccc(F)c(F)c3)cccc21 [Compound 184, Methyl (S)-(5-((3,4-difluorophenyl)carbamoyl)-1,2,3,4-tetrahydronaphthalen-1-yl)carbamate] |  | 8.7 µM
14 | CNC(=O)N[C@H]1CCCc2c(C(=O)Nc3ccc(F)c(F)c3)cccc21 [Compound 185, (S)—N-(3,4-Difluorophenyl)-5-(3-methylureido)-5,6,7,8-tetrahydronaphthalene-1-carboxamide] | 9.8 µM | 
15 | O=C(N[C@H]1CCCc2c(C(=O)Nc3ccc(F)c(F)c3)cccc21)OCc1ccccn1 [Compound 186, Pyridin-2-ylmethyl (S)-(5-((3,4-difluorophenyl)carbamoyl)-1,2,3,4-tetrahydronaphthalen-1-yl)carbamate] | 5.6 µM | 
